Measurements as given in PubChem BioAssay AID1996.
≈ marks a conversion by molar mass, not a printed value.

conditions: buffer; pH 7.4; 200.0 µM

Row | SMILES | solubility kinetic [µg/mL]
1 | CC1(C)CC(=O)C2=C(C1)NC(=S)C(C#N)C21CCCCC1 (centres undefined) | > 45.4
2 | COc1cc(C)c(NC(=O)c2cccc(S(=O)(=O)N3CCCC3)c2)cc1OC | 32.5 (≈ 80.3 µM)
3 | CC(=O)NCCc1nc2ccccc2n1Cc1cc(C)ccc1C | > 48.2
4 | CCNc1nc(NCC)nc(N(C#N)C(C)C)n1 | > 37.4
5 | Cc1onc(-c2ccccc2)c1C(=O)OCCOc1cccc(Cl)c1 | < 0.8
6 | O=C(O)C(Cc1ccccc1)N=C(NS(=O)(=O)c1ccccc1)c1ccccc1 (centres undefined) | > 61.3
7 | Cc1cccc(NS(=O)(=O)c2ccc(C)c(C(=O)NCc3cccnc3)c2)c1 | > 59.3
8 | Cc1cc(C)c(NC(=O)c2ccc3nccnc3c2)c(C)c1 | 41.5 (≈ 142 µM)
9 | O=C(/C=C/c1ccco1)OCC(=O)N1CCCCC1 | > 39.5
10 | CC(C)c1cc(CN2CCOCC2)cc(C(C)C)c1O | > 41.6
11 | N#C/C(=C\c1ccc2c(c1)OCO2)C(N)=S | 5.8 (≈ 25 µM)
12 | O=C1CSCC(=O)N1Cc1ccc(Cl)c(Cl)c1 | 43.2 (≈ 149 µM)
13 | S=C(NC1CCCCC1)N1CCN(c2ncccn2)CC1 | 9.6 (≈ 31.4 µM)
14 | CC(C)Nc1nc2nonc2nc1Nc1ccccc1 | > 40.5
15 | O=C(Cn1cc(C(F)(F)F)ccc1=O)Nc1ccc2c(c1)OCCO2 | 25.2 (≈ 71.1 µM)
16 | Cc1ccc(-c2c[n+](=O)c3c(n2[O-])CCC3)cc1 | > 36.3
17 | CSc1ccc(C2N=C(c3ccccc3)NO2)cc1 (centres undefined) | 11.9 (≈ 44 µM)
18 | CS(=O)(=O)N1CCN(C(=O)CSc2ccccc2)CC1 | > 47.2
19 | CC1CC(C)CN(C(=O)c2ccc3ccccc3c2)C1 (centres undefined) | 33.3 (≈ 125 µM)
20 | Cc1ccc(C)c(C(C)NC(=O)c2ccc(Br)o2)c1 (centres undefined) | 42.1 (≈ 131 µM)
21 | N#Cc1ccc(N2CCOCC2)nc1 | > 28.4
22 | O=C(O)/C=C/c1ccc2noc(-c3ccccc3)c2c1 | 3.7 (≈ 13.9 µM)
23 | Nc1nc(Nc2ccccc2F)nc(N2CCOCC2)c1[N+](=O)[O-] | 8.2 (≈ 24.5 µM)
24 | CC1C(=O)N2CCCc3cc(S(=O)(=O)N4CCCCC4)cc1c32 (centres undefined) | > 50.2
25 | CC1CN(CC(=O)NCc2ccc(F)cc2)CC(C)O1 (centres undefined) | > 42.1
26 | CC(C)CCNC(=O)C1c2ccccc2Oc2ccccc21 | < 0.6

Row | SMILES | solubility kinetic [µg/mL]
27 | O=C1OC(CCl)CN1Cc1c(Cl)cccc1Cl (centres undefined) | 41.9 (≈ 142 µM)
28 | Cc1ccc(N2C(S)=C(C#N)C(=O)NC2c2ccco2)cc1 (centres undefined) | > 46.7
29 | COc1ccc(NS(=O)(=O)c2c(C)cc(C)cc2C)cn1 | 5.3 (≈ 17.3 µM)
30 | CS(=O)(=O)N(CC(=O)N1CCCC1)c1cccc(F)c1 | 44.3 (≈ 147 µM)
31 | CN1C(=O)c2cccc3c(S(=O)(=O)N4CCCC4C(=O)O)ccc1c23 (centres undefined) | > 54.1
32 | Cc1cccc(NC(=S)NCCc2ccc3c(c2)OCCO3)c1C | 27.7 (≈ 80.9 µM)
33 | COc1ccc(NC(=O)C2(c3cccs3)CCOCC2)cc1 | 36.4 (≈ 115 µM)
34 | S=C(NCc1ccccc1)N1CCN(C2CCCCC2)CC1 | > 47.6
35 | O=S(=O)(c1ccccc1)N(CC1CO1)c1cc(Cl)ccc1Cl (centres undefined) | 36.4 (≈ 102 µM)
36 | CC1C(=O)Nc2ccccc2N1C(=O)c1ccc(O)cc1 (centres undefined) | > 42.3
37 | COc1ccc2oc(C(=O)Nc3ccccn3)c(C)c2c1 | 22 (≈ 77.9 µM)
38 | CCCc1cc(=O)[nH]c(SCC(=O)c2cc(C)n(CC3CCCO3)c2C)n1 (centres undefined) | > 58.4
39 | O=C(O)c1ccc(N=Nc2c(-c3ccccc3)[nH]oc2=O)cc1 | > 46.4
40 | O=C(NC1CCC(O)CC1)c1cccc2cccnc12 (centres undefined) | > 40.5
41 | C=CCOCCN(C)C1=NS(=O)(=O)c2ccccc21.Cl | > 47.5
42 | Cn1cc(C(=O)C(=O)N2CCc3ccccc32)c2ccccc21 | 0.8 (≈ 2.63 µM)
43 | CC(=O)Nc1ccc(OC(=O)N(C)c2ccc(C)cc2)cc1 | > 44.8
44 | COc1ccc(NC(=S)NC2CCCC2)c(OC)c1 | > 42.1
45 | CN(C)CCn1c(=S)[nH]c2ccc(Cl)cc2c1=O | > 42.6
46 | FC(F)(F)c1cc(Nc2ccccc2)nc(-c2ccccn2)n1 | 2.9 (≈ 9.17 µM)
47 | COc1cccc(Cn2c(=O)c3[nH]cnc3n(-c3ccccc3C)c2=O)c1 | > 54.4
48 | ClCC1NCC(c2ccccc2Cl)c2c1[nH]c1ccccc21 (centres undefined) | 19.3 (≈ 58.3 µM)
49 | Cc1noc(C)c1S(=O)(=O)Nc1cccc(CO)c1 | > 42.3
50 | CC(C)(C)NC(=O)c1cccc2c1C(=O)c1ccccc1-2 | 3.9 (≈ 14 µM)
51 | Cc1cc(C)cc(NC2=C(N)C(=O)c3ccccc3C2=O)c1 | 0.4 (≈ 1.37 µM)
52 | Cn1c(=O)c2cc3c(nc2n(C)c1=O)CC(c1ccccc1)CC3=O (centres undefined) | 0.5 (≈ 1.49 µM)

Row | SMILES | solubility kinetic [µg/mL]
53 | O=C(c1ccc(Br)cc1)N(c1ccccn1)C1CCCCC1 | 16.5 (≈ 45.9 µM)
54 | O=C(Nc1ccccc1)Nc1ccc(Cl)nc1Cl | 3.9 (≈ 13.8 µM)
55 | S=C1SCN(Cc2ccco2)CN1Cc1ccco1 | > 44.2
56 | O=C(O)c1cc(-n2cccc2)ccc1N1CCOCC1 | > 40.8
57 | N=C1SCC(=O)N1c1ncc(Cc2ccccc2Cl)s1 | 2.2 (≈ 6.79 µM)
58 | COc1cccc(CNc2nc3ccccc3n2C)c1O | 6.2 (≈ 21.9 µM)
59 | COc1ccccc1CNC(=O)C(C)Oc1ccccc1 (centres undefined) | > 42.8
60 | COc1cccc(OC)c1C(=O)Nc1cccc(-c2nc3ccccc3[nH]2)c1 | 11.1 (≈ 29.7 µM)
61 | Cc1csc(SCC(=O)NC(C)c2ccc(F)cc2)n1 (centres undefined) | 38.8 (≈ 125 µM)
62 | COc1ccccc1CNCC(=O)Nc1cc(S(=O)(=O)N2CCCCC2)ccc1C.O=C(O)C(=O)O | 34.3
63 | CCn1c(/C=C/c2ccc(O)c(O)c2)nc2ccccc2c1=O | 27 (≈ 87.6 µM)
64 | O=C(NCC(c1cccs1)N1CCOCC1)c1cc2ccccc2oc1=O (centres undefined) | 10 (≈ 26 µM)
65 | OC(c1ccccc1)c1nccc2ccccc12 (centres undefined) | > 35.3
66 | O=C(NCc1ccccc1)C12CC3CC(CC(Cl)(C3)C1)C2 | 5 (≈ 16.5 µM)
67 | CC1C(=O)N2CCCc3cc(NS(=O)(=O)c4ccccc4)cc1c32 (centres undefined) | > 51.4
68 | CC(C)CC(=O)Nc1cc2c3c(c1)C(C)C(=O)N3CCC2 (centres undefined) | > 43
69 | COc1ccc(-c2csc(C)n2)cc1Br | 14.8 (≈ 52.1 µM)
70 | COc1ccc(C2(CNC(=O)c3ccccc3)CCOCC2)cc1 | > 48.8
71 | Cc1ccccc1CC(=O)N1CCN(S(=O)(=O)c2ccc(Cl)s2)CC1 | 5.6 (≈ 14 µM)
72 | Cc1onc(-c2c(Cl)cccc2Cl)c1C(O)c1ccccc1 (centres undefined) | > 50.1
73 | O=C(CNS(=O)(=O)c1c(F)cccc1F)NC1CCCc2ccccc21 (centres undefined) | > 57.1
74 | CCNC(=S)N1CCN(S(=O)(=O)c2ccc(Cl)s2)CC1 | 31.4 (≈ 88.7 µM)
75 | O=C(Nc1ccc(F)cc1)C1CC(=O)N(Cc2ccco2)C1 (centres undefined) | > 45.3
76 | CNC(=O)c1ccccc1Sc1ccccc1CO | 40.3 (≈ 147 µM)

Next, values leading:

Row | solubility kinetic [µg/mL] | SMILES
77 | < 0.7 | CCOC(=O)c1ccccc1CN1C(=O)c2ccccc2S1(=O)=O
78 | > 46.4 | CCCc1cc(=O)[nH]c(SCC(=O)Nc2nonc2C)n1
79 | 18.3 (≈ 74 µM) | O=C(Cc1ccc([N+](=O)[O-])cc1)Nc1ccon1
80 | 36.9 (≈ 112 µM) | Cc1[nH]c(=O)[nH]c(=S)c1C(=O)Nc1ccc(Cl)c(Cl)c1
81 | 28.2 (≈ 90 µM) | O=C(COC(=O)c1cccc(OC(F)F)c1)NC1CCCC1
82 | 38.8 (≈ 134 µM) | CCCNC(=O)N1CCC(c2ccc3c(c2)OCO3)CC1
83 | > 43.9 | CCOC(=O)N1CCN(C(=O)c2ccc(OC)cc2)CC1
84 | < 0.3 | Cc1ccc(C#N)c(SCc2cccc(Br)c2)n1
85 | 0.3 (≈ 0.889 µM) | Cc1cc2cc(CNC(=O)Cc3ccc([N+](=O)[O-])cc3)ccc2n1C
86 | > 59 | CC(=O)Nc1ccc(S(=O)(=O)N(C)CC(=O)OCC(=O)c2ccc[nH]2)cc1
87 | > 47.3 | O=C(CNC(=O)c1ccco1)N/N=C/c1ccc(C(=O)O)cc1
88 | 5.2 (≈ 12.5 µM) | O=C(CN1C(=O)NC(CCc2ccccc2)C1=O)Nc1cccc(Br)c1 (centres undefined)
89 | 3.1 (≈ 6.73 µM) | CCOc1ccc(S(=O)(=O)N(C)c2ccc(OCC(=O)NCC3CCCCC3)cc2)cc1
90 | 2.6 (≈ 9.91 µM) | Cc1cccc(C(=O)Nc2cccc3cccnc23)c1
91 | 30.6 (≈ 103 µM) | Cc1nc2ccc(NC(=O)c3ccc([N+](=O)[O-])cc3)cc2[nH]1
92 | < 0.3 | CCCC1CCC(c2ccc(/C(N)=N/O)cc2)CC1 (centres undefined)
93 | > 44.6 | Cc1ccc(C(=O)NCCCNC(=O)c2cccnc2)cc1
94 | 2.9 (≈ 11.2 µM) | O=C(Nc1ccccn1)Nc1ccccc1[N+](=O)[O-]
95 | > 47.7 | O=C(O)CCCCCNC(=O)C(=O)C1C(=O)Nc2ccccc21 (centres undefined)
96 | 2.7 (≈ 7.8 µM) | CSc1ncccc1C(=O)OCC(=O)Nc1ccc2c(c1)OCO2
97 | 3.1 (≈ 12.6 µM) | CCOC(=O)c1c(C=O)c2ccccc2n1CC
98 | 1.7 (≈ 5.42 µM) | CCC(=O)Nc1nc2ccccc2n1Cc1ccccc1Cl

Row | solubility kinetic [µg/mL] | SMILES
99 | > 50.9 | CC(CC(=O)OCC(=O)NC1CCS(=O)(=O)C1)c1ccccc1 (centres undefined)
100 | < 0.2 | Cc1c(Cl)cccc1NC(=O)Nc1cc(C(C)(C)C)on1
101 | 3.8 (≈ 14.1 µM) | Cc1ccc(OCCNC(=O)c2ccc(C)cc2)cc1
102 | 0.7 (≈ 2.16 µM) | CCCC(=O)Nc1ccc(-c2csc(-c3cccnc3)n2)cc1
103 | > 43.5 | CC(=O)/C(C#N)=C1\NC(=O)C(Cc2ccc(F)cc2)S1 (centres undefined)
104 | > 46.9 | CCOC(=O)N1CCC(NS(=O)(=O)c2ccccc2)CC1
105 | > 42.8 | Cc1ccc2c(c1)sc(C)[n+]2CCCS(=O)(=O)[O-]
106 | > 43.1 | COCC(=O)OC/C(O)=C(\C#N)c1nc2ccccc2[nH]1
107 | 38.3 (≈ 115 µM) | O=C(NC(c1ccccc1)c1ccccn1)c1cccc([N+](=O)[O-])c1 (centres undefined)
108 | > 63.8 | O=C(CCNC(=O)c1ccccc1)Nc1ccc(S(=O)(=O)Nc2ncccn2)cc1
109 | 7.6 (≈ 21.5 µM) | O=C(COC(=O)/C=C/c1ccco1)NCc1ccc(Cl)cc1Cl
110 | 28.4 (≈ 104 µM) | O=C(CN1CCCC1)Nc1cccc(Cl)c1Cl
111 | 3.1 (≈ 9.93 µM) | O=C(COC(=O)c1c[nH]c2ccccc12)Nc1ccc(F)cc1
112 | 3.9 (≈ 12.9 µM) | Cc1ccc(OCC(=O)Nc2cc(C(C)(C)C)on2)cc1C
113 | 43.7 (≈ 147 µM) | Cc1cc(C(=O)N2CCN(c3ncccc3C#N)CC2)no1
114 | > 39.9 | CCOC(=O)C1=C(C)NC(=O)NC1c1cccs1 (centres undefined)
115 | > 41.3 | Cc1ccc(NC(=O)CCC2CC(C)(C)OC2=O)cc1 (centres undefined)
116 | 27.9 (≈ 88.9 µM) | CN(CC(=O)Nc1cccc(C#N)c1)Cc1ccc(Cl)cc1
117 | 13 (≈ 37.9 µM) | Cc1csc(NC(=O)CN2C(=O)c3ccccc3C2=O)c1C(N)=O
118 | > 43.7 | CCCC(=O)OCC(=O)Nc1ccc([N+](=O)[O-])cc1C#N
119 | > 46.3 | CN1CCN(C(=S)NC(=O)c2cccc([N+](=O)[O-])c2)CC1
